Target: T1, GIVA cPLA2 (Homo sapiens, UniProt P47712)
T1 construct: gene PLA2G4A
T1 sequence (P47712 1-749): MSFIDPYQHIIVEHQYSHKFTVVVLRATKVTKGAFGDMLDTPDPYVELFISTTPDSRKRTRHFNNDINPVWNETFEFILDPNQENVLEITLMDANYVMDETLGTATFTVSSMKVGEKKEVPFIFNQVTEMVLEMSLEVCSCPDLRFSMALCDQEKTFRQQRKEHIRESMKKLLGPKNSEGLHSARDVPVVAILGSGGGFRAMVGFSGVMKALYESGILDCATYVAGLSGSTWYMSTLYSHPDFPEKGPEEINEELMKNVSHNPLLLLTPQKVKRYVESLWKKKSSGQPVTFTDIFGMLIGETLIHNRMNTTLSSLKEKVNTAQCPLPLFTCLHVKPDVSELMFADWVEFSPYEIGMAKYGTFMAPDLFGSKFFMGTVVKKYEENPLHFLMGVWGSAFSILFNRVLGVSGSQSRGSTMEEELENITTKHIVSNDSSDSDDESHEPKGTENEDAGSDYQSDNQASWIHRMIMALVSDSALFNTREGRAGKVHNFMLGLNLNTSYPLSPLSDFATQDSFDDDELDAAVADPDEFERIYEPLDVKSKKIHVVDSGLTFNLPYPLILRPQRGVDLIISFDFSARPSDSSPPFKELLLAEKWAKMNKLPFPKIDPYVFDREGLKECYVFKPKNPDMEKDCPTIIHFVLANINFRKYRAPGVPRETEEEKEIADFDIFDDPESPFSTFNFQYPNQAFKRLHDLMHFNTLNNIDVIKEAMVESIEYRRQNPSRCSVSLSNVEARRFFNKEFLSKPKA
Assay: LC/MS lipidomics-based mixed micelle assay with recombinant human enzyme, dose-response
Format: biochemical

SMILES	GIVA cPLA2 / XI(50)
CC(CCCC(=O)O)OC(=O)C(=O)CCCCc1ccc(-c2ccccc2)cc1 (centres unmarked) [17b, 5-((6-([1,1’-Biphenyl]-4-yl)-2-oxohexanoyl)oxy)hexanoic acid]	0.0012 ± 0.00008 mole fraction (XI(50))
CC(CCCc1ccc(-c2ccccc2)cc1)C(=O)C(=O)OCCCCC(=O)O (centres unmarked) [17a, 5-((6-([1,1’-Biphenyl]-4-yl)-3-methyl-2-oxohexanoyl)oxy)pentanoic acid]	0.00036 ± 0.00007 mole fraction (XI(50))
